The source of these data is patent US20240158418A1 (C4 Therapeutics, Inc., priority 2021, published 2024).

Read-outs that look alike come from different tables or passages of the source.

Usually DC50 stands for the concentration giving 50% degradation. What is called IC50 is the concentration at which inhibition is half-maximal. As usually defined, the GI50 is the concentration that inhibits growth by half.

One test has as its target T1, EGFR L858R-T790M (Homo sapiens, UniProt P00533, L858R/T790M).
T1 construct: NCI-H1975 (harboring EGFR heterozygous L858R-T790M mutations); host or cells: NCI-H1975
Description: EGFR degradation, Total EGFR (L858R-specific) HTRF, NCI-H1975. It counts as cell-based. As to conditions: 6 hours. In outline:
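Cells in RPMI 1640 + 10% FBS treated 6 h at 37°C with compound, 11-point half-log titration from 10 μM top, in duplicate. pY1068 and total EGFR read by HTRF (pan-EGFR antibody for wild-type A431; L858R-specific for mutants); IC50 for phospho inhibition, DC50 for 50% degradation.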
For orientation: TR-FRET usually uses a lanthanide donor and a delayed reading to cut background.

A further test addresses T2, pY1068 EGFR WT (Homo sapiens, UniProt P00533).
T2 construct: A431 (harboring EGFR wildtype) was purchased from ATCC; host or cells: A431
The experiment in a line: Phospho-EGFR (pY1068) inhibition HTRF, A431. As to conditions: A431 (wild-type), 6 hours; read-out: pEGFR IC50. In kind it is cell-based. From the text:
NCI-H1975 (harboring EGFR heterozygous L858R-T790M mutations) and NCI-H3255 (harboring EGFR heterozygous L858R mutation) were purchased from ATCC and NCI, respectively. NCI-H1975+CS (harboring EGFR heterozygous L858R-T790M-C797S mutations) was generated using CRISPR technology to introduce the additional C797S mutation by Horizon Discovery. A431 (harboring EGFR wildtype) was purchased from ATCC. RPMI 1640 no-phenol red medium and fetal bovine serum (FBS) were purchased from Gibco (Grand Island, NY, USA). Cell culture flasks and 384-well microplates were acquired from VWR (Radnor, PA, USA). Phosphorylated (pY1068) EGFR and Total EGFR (using L858R-specific detection antibody and pan-EGFR antibody for EGFR mutant cell lines and EGFR wild-type cell lines, respectively) HTRF assay kits were purchased from Cisbio (Bedford, MA, USA).
Degradation of EGFR protein containing L858R mutation or wild-type was determined based on quantification of FRET signal using a Total EGFR (L858R-specific or pan-EGFR detecting) HTRF assay kit. Phospho-EGFR (pEGFR) inhibition was determined based on quantification of FRET signal using a pY1068 EGFR HTRF assay kit. In separate assay plates, test compounds were added to the 384-well plate from a top concentration of 10 μM with 11 points, half log titration in duplicates. […] FRET signal was acquired on EnVision™ Multilabel Reader (PerkinElmer, Santa Clara, CA, USA). […]

In test [1] the test system is BaF3 cells expressing EGFR L858R-T790M-C797S. The experiment in a line: Ba/F3 EGFR cell viability (CellTiter-Glo), L858R-T790M-C797S. In kind it is cell-based. Conditions: Mus musculus, read-out: CTGlo (GI50). The source says: (§1) RPMI 1640 media, cell culture flasks, and 384-well microplates were purchased from VWR (Radnor, PA, USA). Fetal bovine serum (FBS) was purchased from Life Technologies (Carlsbad, CA, USA) and CellTiter-Glo® was purchased from Promega (Madison, WI, USA). The Ba/F3 parental cell line was purchased from CrownBio (Santa Clara, CA). BaF3 cell lines ectopically expressing the EGFR mutations L858R, L858R-T790M, L858R-C797S, and L858R-T790M-C797S were purchased from CrownBio and EGFR mutations L858R-L718Q, L858R-T790M-L718Q, L858R-L792H, and L858R-T790M-L792H, were purchased from Signosis (Santa Clara, CA).
(§2) Cell viability was assessed based on the quantification of ATP using the CellTiter-Glo® assay (Promega, Madison, WI, USA). To determine the effect of compounds on cell viability, all Ba/F3 cell lines were plated at a cell density of 2000 cells/well in 384-well plates using RPMI 1640+10% FBS and treated with compounds of interest using a 10-point half-log dilution series in duplicate for 72 hours, with the highest dose set at […]. CellTiter-Glo® reagent was then added and luminescence signals were measured using an EnVision™ Multimode plate reader (Perkin Elmer, Santa Clara, CA). For data normalization, cells untreated with the test compounds at Time=72 hours were set to 100% (equivalent to maximal cell growth after 72 hours); cells untreated with the test compounds at Time=0 hours were set to 0% (equivalent to cytostasis); and media-only wells were set to −100% (equivalent to complete cytotoxicity). % Viability was determined by normalizing the signal with positive and DMSO treated negative controls on the same microtiter plate. The half-maximal inhibition of cell growth (GI50) is computed from where the fitted curve crosses 50% while the half-maximal lethal dose (LD50) is computed from where the fitted curve crosses −50%.
A general note: ATP-based viability assays read luminescence as a measure of living cells.

For test [2], the system named is BaF3 cells expressing EGFR L858R-T790M-L792H. The experiment in a line: Ba/F3 EGFR cell viability (CellTiter-Glo), L858R-T790M-L792H. It counts as cell-based. Conditions: Mus musculus, read-out: CTGlo (GI50).
Source text: as §1, §2

The subject of test [3] is BaF3 cells expressing wild-type EGFR. The experiment in a line: Ba/F3 EGFR cell viability (CellTiter-Glo), wild-type EGFR. It counts as cell-based. Conditions: Mus musculus, Ba/F3 WT EGFR, read-out: CTGlo (GI50).
Test [4] relates to engineered triple mutant EGFR (L858R-T790M-C797S) BaF3 tumors. The experiment in a line: BaF3 triple mutant EGFR allograft efficacy. It counts as in vivo, female BALB/c nude mice. Conditions: for efficacy on BaF3 tumor volume: Compound 1 or 2 at 20, 50, 100 mg/kg/day PO BID, osimertinib 25 mg/kg/day PO QD, 14 days. As to the method: Each Compound was administered BID (twice a day) orally (PO).
Tumor volume was measured twice weekly in two dimensions using calipers, and volume (mm^3) was calculated using the formula: V=0.5 a×b^2 where a and b are the long and short diameters of the tumor in mm, respectively. […] Treatment began on Day 0 with established subcutaneous BaF3 tumors with a mean tumor volume (MTV) of 108 mm^3.
Body weight and MTV were measured on a 2× weekly schedule. Statistical analysis was performed using a one-way ANOVA followed by Dunnett's multiple comparison test. Data are expressed as MTV±SEM.

The target in the next test is T3, pY1068 EGFR (Homo sapiens, UniProt P00533, L858R).
T3 construct: NCI-H3255 (harboring EGFR heterozygous L858R mutation); host or cells: NCI-H3255
T3 sequence (P00533 25-1210 L858R): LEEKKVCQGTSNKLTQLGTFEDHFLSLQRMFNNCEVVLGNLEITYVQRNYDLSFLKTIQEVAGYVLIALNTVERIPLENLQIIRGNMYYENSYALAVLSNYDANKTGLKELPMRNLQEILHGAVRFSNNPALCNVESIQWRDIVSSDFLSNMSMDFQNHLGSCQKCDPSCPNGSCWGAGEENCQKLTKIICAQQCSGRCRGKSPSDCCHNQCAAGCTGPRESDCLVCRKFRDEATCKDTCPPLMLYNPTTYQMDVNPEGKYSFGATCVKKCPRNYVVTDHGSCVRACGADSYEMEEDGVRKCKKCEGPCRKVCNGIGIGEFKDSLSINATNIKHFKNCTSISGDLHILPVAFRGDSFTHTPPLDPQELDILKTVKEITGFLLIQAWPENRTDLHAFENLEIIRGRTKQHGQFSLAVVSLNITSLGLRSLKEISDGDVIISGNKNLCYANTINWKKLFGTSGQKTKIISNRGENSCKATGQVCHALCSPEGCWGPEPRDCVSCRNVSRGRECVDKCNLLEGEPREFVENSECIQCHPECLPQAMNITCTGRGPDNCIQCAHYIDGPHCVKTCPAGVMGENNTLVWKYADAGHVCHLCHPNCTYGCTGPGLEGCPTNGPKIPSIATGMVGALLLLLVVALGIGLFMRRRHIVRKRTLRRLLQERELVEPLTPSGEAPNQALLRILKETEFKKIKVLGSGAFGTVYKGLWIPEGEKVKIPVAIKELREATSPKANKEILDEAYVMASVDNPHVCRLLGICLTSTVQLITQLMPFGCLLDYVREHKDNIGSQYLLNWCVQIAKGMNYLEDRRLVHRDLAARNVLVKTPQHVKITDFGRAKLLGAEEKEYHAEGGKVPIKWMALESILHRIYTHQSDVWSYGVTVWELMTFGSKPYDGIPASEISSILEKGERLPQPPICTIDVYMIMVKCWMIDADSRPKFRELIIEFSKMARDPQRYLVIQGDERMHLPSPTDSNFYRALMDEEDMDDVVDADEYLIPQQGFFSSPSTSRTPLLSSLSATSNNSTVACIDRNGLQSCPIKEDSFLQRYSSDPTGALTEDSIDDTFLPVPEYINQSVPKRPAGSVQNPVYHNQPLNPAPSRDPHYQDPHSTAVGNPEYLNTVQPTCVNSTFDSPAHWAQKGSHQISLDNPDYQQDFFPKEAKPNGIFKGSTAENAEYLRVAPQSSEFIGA
The experiment in a line: Western blot NCI-H3255, Compound 1 with or without osimertinib: phospho-EGFR. In kind it is cell-based. Conditions: NCI-H3255, six hours, 0-1,500 nM, presence and absence of 1,500 nM osimertinib. From the text:
The compound bearing solutions were formulated to achieve a 0.1% final concentration of DMSO. […] Antibodies used in western blot were purchased from the following vendors: EGFR-L858R specific antibody (CST 3197), pY1068 EGFR (CST 2234), pERK (CST 4370), ERK (CST 4695), vinculin (Millipore 05-386).
For orientation: A western blot detects proteins with antibodies after separation by electrophoresis.

Setting [5] is: H1975 (L858R-T790M), read-out: tEGFR DC50.
The mark [6] stands for this setting: Table 9A, NCI-H1975 cells, Total EGFR HTRF, read-out: H1975 EGFR DC50.

T1 sequence (P00533 25-1210 T790M/L858R): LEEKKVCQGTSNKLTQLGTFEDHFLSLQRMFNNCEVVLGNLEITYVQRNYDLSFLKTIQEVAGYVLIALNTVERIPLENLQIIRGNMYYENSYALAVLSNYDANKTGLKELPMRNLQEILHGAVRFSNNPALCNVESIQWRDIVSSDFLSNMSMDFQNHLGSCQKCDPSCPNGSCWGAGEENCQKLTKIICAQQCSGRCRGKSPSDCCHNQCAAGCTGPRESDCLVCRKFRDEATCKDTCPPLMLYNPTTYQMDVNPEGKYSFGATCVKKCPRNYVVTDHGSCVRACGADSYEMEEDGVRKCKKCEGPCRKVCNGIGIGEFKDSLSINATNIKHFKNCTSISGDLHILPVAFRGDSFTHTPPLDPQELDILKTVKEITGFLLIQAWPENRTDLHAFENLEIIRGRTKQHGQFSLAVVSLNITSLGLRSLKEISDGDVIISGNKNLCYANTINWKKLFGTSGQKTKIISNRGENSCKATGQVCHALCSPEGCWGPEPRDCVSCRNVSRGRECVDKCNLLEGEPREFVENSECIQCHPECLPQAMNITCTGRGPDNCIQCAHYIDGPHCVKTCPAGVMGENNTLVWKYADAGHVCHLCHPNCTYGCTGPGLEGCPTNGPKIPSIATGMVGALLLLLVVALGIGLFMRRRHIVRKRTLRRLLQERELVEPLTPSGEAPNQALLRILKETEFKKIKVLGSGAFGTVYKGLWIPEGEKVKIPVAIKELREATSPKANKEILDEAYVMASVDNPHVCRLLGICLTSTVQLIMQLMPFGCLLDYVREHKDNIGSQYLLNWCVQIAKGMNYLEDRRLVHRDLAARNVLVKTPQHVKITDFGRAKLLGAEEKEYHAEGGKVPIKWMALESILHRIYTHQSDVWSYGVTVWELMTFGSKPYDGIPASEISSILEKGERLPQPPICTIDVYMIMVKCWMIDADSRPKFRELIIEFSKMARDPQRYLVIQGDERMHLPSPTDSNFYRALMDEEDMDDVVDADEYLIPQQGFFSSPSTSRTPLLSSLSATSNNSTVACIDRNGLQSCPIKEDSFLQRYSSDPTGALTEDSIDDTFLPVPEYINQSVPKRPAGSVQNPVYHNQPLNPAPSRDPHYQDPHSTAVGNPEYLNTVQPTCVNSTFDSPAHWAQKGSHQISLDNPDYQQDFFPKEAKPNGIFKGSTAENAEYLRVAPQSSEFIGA
T2 sequence (P00533 25-1210): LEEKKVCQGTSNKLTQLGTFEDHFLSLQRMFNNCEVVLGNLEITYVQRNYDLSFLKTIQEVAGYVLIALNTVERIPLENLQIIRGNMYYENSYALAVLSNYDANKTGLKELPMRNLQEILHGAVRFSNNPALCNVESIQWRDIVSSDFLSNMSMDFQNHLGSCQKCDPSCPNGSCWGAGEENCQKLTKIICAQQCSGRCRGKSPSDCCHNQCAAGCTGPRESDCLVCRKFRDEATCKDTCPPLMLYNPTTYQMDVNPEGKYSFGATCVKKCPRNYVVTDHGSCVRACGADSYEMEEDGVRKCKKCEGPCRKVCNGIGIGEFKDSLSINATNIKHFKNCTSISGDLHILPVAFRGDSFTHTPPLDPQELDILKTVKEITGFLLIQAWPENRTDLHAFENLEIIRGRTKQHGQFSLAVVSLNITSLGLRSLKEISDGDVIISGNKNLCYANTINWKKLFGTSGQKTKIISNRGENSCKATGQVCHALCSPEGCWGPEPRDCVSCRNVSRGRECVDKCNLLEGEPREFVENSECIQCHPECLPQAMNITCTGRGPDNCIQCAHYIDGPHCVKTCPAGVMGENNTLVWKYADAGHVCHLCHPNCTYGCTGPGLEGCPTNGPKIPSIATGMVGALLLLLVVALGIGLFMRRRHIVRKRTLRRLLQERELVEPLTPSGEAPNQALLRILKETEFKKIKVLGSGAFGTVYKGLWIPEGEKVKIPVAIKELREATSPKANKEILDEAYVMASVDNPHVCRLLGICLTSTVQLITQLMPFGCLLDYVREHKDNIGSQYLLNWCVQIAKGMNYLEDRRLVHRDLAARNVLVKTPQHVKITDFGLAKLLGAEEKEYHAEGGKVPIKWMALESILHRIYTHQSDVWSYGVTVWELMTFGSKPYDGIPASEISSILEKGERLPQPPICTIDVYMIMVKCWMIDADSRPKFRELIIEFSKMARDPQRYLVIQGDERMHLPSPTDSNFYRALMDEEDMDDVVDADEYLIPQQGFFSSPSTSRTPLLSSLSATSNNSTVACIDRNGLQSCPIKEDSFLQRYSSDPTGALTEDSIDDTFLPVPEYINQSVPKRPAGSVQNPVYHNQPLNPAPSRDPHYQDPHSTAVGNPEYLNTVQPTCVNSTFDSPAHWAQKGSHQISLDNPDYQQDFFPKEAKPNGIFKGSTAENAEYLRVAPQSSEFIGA

On to `O=C1CC[C@H](Nc2ccc(N3CCC(O)(CC(=O)N4CC5(C4)CN(c4ccc(-c6cc(F)c7c(c6)C(=O)N(C(C(=O)Nc6nccs6)c6ncn8c6CCC8)C7)cc4)C5)CC3)c(F)c2)C(=O)N1` (stereo partly drawn) [Compound 1, 2-(6,7-dihydro-5H-pyrrolo[1,2-c]imidazol-1-yl)-2-[6-[4-[2-[2-[1-[4-[[(3S)-2,6-dioxo-3-piperidyl]amino]-2-fluoro-phenyl]-4-hydroxy-4-piperidyl]acetyl]-2,6-diazaspiro[3.3]heptan-6-yl]phenyl]-4-fluoro-1-oxo-isoindolin-2-yl]-N-thiazol-2-yl-acetamide], for which the DC50 is 8 nM on EGFR L858R-T790M (setting [5]) and less than 50 nM at EGFR L858R-T790M (setting [6]). Further, the half-maximal inhibitory concentration (IC50) on pY1068 EGFR WT is greater than 10000 nM. Besides, the GI50 in test [1] turned out to be 7 nM; in test [2], 21 nM; in test [3], 1620 nM. Further, the tumor regression in test [4] (BaF3 EGFR-L858R-T790M-C797S allograft mouse model, oral dosing) is 60%. In addition, in test [4], the “efficacy on BaF3 tumor volume” value was “reduced tumor volume”. Moreover, the “phospho-EGFR inhibition (western blot)” value on pY1068 EGFR is “inhibited”.

`Cn1nc(N2CCC(=O)NC2=O)c2ccc([C@H]3CCN(CC(=O)N4CC5(C4)CN(c4ccc(-c6cc(F)c7c(c6)C(=O)N(C(C(=O)Nc6nccs6)c6ncn8c6CCC8)C7)cc4)C5)CC3(F)F)cc21` (stereo partly drawn) [Compound 2, 2-(6,7-dihydro-5H-pyrrolo[1,2-c]imidazol-1-yl)-2-[6-[4-[2-[2-[(4R)-4-[3-(2,4-dioxohexahydropyrimidin-1-yl)-1-methyl-indazol-6-yl]-3,3-difluoro-1-piperidyl]acetyl]-2,6-diazaspiro[3.3]heptan-6-yl]phenyl]-4-fluoro-1-oxo-isoindolin-2-yl]-N-thiazol-2-yl-acetamide]: the figures for the 50% degradation concentration (DC50) at EGFR L858R-T790M (setting [5]) and at EGFR L858R-T790M (setting [6]) were 12 nM and less than 50 nM, respectively. Further, the IC50 on pY1068 EGFR WT is greater than 10000 nM. The 50% growth inhibitory concentration (GI50) in test [1] amounted to 5 nM; in test [2] it was 9 nM; in test [3], 310 nM. Also, in test [4], the “efficacy on BaF3 tumor volume” value is given as “reduced tumor volume”.
